The values that follow come from patent US12129258B2, “Diaryl macrocyclic compound and pharmaceutical composition, and use thereof” (PrimeGene (Beijing) Co., Ltd., priority 2018, dated 2024).

Read-outs that look alike come from different tables or passages of the source.

Series [1] relates to H1975 (L858R and T790M double mutation) cells. As to the kind of experiment: Analysis of synergistic effect with EGFR inhibitor (Chou-Talalay), H1975 proliferation. The class given is cell-based. The following applies: combination with AZD9291, H1975 cells, 72 hr, Chou-Talalay index method. Here is the method: 5. Analysis of Synergistic Effect
H1975 (L858R and T790M double mutation) cells were cultured in RPMI-1640 medium containing 10% FBS and 1% P/S ([…]). In the testing of the compounds, H1975 cells were seeded in 96-well plate (Corning, Cat #3917) at 3000 cell/well and the compounds were added at 195 μL solution/well. The initial test concentration of the compound was 10 μM, 3-fold gradient diluted to obtain 11 samples. 4 μL of each sample was added to 96 μL RPMI-1640 medium to dilute the 25× Compound. 5 μL was added to 195 μL cell medium (the final concentration of DMSO is 0.1%, v/v). After 72 hr incubation, 35 μL of CellTiter-Blue® (Promega, Cat #G8082) was added to the cells. The fluorescence signal was measured with FlexStation 3 (Molecular Devices) according to the instructions, and the IC50 value of the compound on cell proliferation inhibition was calculated by Graphpad Grism 5.0 software. The Chou-Talalay index method was used to analyze the effect of the combination. 0.9≤Combination Index (CI)≤1.1 means additive effect, 0.8≤CI<0.9 means low synergistic effect, 0.6≤CI<0.8 means medium synergistic effect, 0.4≤CI<0.6 means high synergistic effect, 0.2≤CI<0.4 means strong synergistic effect.

Series [2] concerns the target TRKC (Homo sapiens (Human), UniProt Q16288). The series is described as follows: Mobility shift assay, TRKC kinase. The settings on record: read-out: TRKC IC50, ATP 44.4 μM.
Procedure: The inhibitory activity of compounds on TRKA, TRKB, TRKC and ROS1 kinase was analyzed with Mobility shift assay. The screening platform is MSA based microfluidic chip technology, which applies the basic concept of capillary electrophoresis to microfluidic environment. The substrate used in the experiment is a poly-peptide labeled with fluorescent. Under the catalysis of enzyme in the reaction system, the substrate is transformed into a product, with the charge changed accordingly. MSA technology could detect the substrate and the product with different charge separately.
The compound powder was dissolved in 100% DMSO (Sigma, Cat. D8418-1l) to prepare a 10 mM storage solution. […] The reaction was carried out at room temperature for 30 min/40 min/20 min/20 min respectively. After the reaction was terminated, the conversion rate was read by Caliper EZ Reader II.
Conversion %_Min: mean value of negative control, representing the conversion rate without enzyme activity;
Conversion %_Max: mean value of positive control, which represents the conversion rate reading without compound inhibition.
Taking the log value of concentration as X axis and the percentage inhibition rate as Y axis, the dose response curve was fitted by the analysis software GraphPad Prism 5, thus the IC50 value of each compound on enzyme activity inhibition was obtained.
Series [3] addresses TRKA (Homo sapiens (Human), UniProt P04629). The series is described as follows: Mobility shift assay, TRKA kinase. The class given is biochemical. The settings on record: ATP 47.8 μM. The text has this:
The operation is described as follows:
Conversion %_Sample: conversion rate of sample;

Series [4] relates to Ba/F3 LMNA-NTRK1-G595R. As to the kind of experiment: Cell proliferation inhibition (CellTiter-Glo), Ba/F3 LMNA-NTRK1-G595R. The class given is cell-based. The following applies: Mus musculus, BaF3, 72 h. The text has this:
(§1) 4. Inhibitory Effect of Compounds on the Proliferation of TRK Fusion and Mutant Stable Cell Lines (IC50)
Six cell lines including Ba/F3 LMNA-NTRK1-WT, Ba/F3 LMNA-NTRK1-G595R, Ba/F3 ETV6-NTRK2-WT, Ba/F3 ETV6-NTRK2-G639R, Ba/F3 ETV6-NTRK2-G639R and Ba/F3 ETV6-NTRK3-G623R were used in this experiment.
(§2) The operation is described briefly as follows:
The cells in logarithmic growth phase were harvested to ensure that the cell viability was above 90%. […] Then each well containing the cells of the 96-well plate was added the compound solutions, 3 wells for each compound solution, and continued to incubate for another 72 hrs. Then CellTiter-Glo® kit (Promega, Cat #G7572) was used to do the detection. First, the CTG reagent was melted and the cell plate was balanced to room temperature. The same volume of CTG solution was added into each well and vibrated on the shaker for 5 minutes to lyse the cells. The cell plate was kept at room temperature for 20 minutes to stabilize the luminescent signal. […] Cell survival rate (%)=(1umdrug−1ummedium)/(1umcell−lummedium)×100%

Series [5] can be described thus: Pharmacokinetic analysis in rats. The class given is in vivo, Male SD rats. The following applies: rat. How it is done: 6. Pharmacokinetic Analysis
Male SD rats were grouped, each group having 3 rats. […] Animals were fasted overnight from 10 hours before administration to 4 hours after administration. Blood samples were collected at 0.25, 0.5, 1, 2, 4, 8 and 24 hours after administration in the oral group and at 0.083, 0.25, 0.5, 1, 2, 4, 8 and 24 hours after injection in the intravenous group. After isoflurane anesthesia, 0.3 ml whole blood collected through the fundus vein plexus was put into the heparin anticoagulant tube. The sample was centrifuged at 4° C. at 4000 rpm for 5 min. The plasma was transferred into the centrifuge tube and stored at −80° C. until analysis. The extract from the plasma extracted by protein precipitation was analyzed by LC/MS/MS.

The target of series [6] is TRKB (Homo sapiens (Human), UniProt Q16620). As to the kind of experiment: Mobility shift assay, TRKB kinase. The settings on record: read-out: TRKB IC50, ATP 71.2 μM.
Sequence of TRKB (Q16620 32-822): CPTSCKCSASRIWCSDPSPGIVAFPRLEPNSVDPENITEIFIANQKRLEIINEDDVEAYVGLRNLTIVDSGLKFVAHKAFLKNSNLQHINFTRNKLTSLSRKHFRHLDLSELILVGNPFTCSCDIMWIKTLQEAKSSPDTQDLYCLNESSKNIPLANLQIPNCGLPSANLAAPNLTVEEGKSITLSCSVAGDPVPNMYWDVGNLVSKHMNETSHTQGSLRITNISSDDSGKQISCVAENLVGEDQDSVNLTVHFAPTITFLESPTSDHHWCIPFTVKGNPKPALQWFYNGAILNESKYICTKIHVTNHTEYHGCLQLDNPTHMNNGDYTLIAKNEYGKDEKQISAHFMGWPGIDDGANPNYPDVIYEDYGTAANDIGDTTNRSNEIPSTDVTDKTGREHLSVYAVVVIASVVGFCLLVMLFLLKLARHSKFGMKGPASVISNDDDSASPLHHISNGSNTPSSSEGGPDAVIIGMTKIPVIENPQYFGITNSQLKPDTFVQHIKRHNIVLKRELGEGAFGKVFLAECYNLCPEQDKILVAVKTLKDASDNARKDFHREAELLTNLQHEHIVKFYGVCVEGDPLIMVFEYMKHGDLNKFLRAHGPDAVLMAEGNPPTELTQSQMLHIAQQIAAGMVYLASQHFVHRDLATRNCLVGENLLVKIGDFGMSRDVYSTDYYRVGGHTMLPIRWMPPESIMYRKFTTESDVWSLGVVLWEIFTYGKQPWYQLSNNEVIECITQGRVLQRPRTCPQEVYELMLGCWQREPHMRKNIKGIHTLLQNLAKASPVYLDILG
In series [7] the test system is Ba/F3 ETV6-NTRK2-G639R. The series is described as follows: Cell proliferation inhibition (CellTiter-Glo), Ba/F3 ETV6-NTRK2-G639R. The following applies: Mus musculus, BaF3, 72 h, 72 hrs, read-out: IC50 proliferation Ba/F3 ETV6-NTRK2-G639R. The class given is cell-based. How it is done:
as §1
(§3) Six cell lines including Ba/F3 LMNA-NTRK1-WT, Ba/F3 LMNA-NTRK1-G595R, Ba/F3 ETV6-NTRK2-WT, Ba/F3 ETV6-NTRK2-G639R, Ba/F3 ETV6-NTRK2-G639R and Ba/F3 ETV6-NTRK3-G623R were used in this experiment. For the six cell lines, the maximum test concentration of the compound was 1 μM, 1 μM, 10 μM, […], 1 μM and 10 μM, were 3.16-fold gradient diluted to obtain 9 samples.
as §2
(§4) The cells in logarithmic growth phase were harvested to ensure that the cell viability was above 90%. 3000 cell/well were seeded in 96-well plate (Corning, Cat #3603). The cells were incubated overnight with 5% CO2, 95% humidity at 37° C. Then each well containing the cells of the 96-well plate was added the compound solutions, 3 wells for each compound solution, and continued to incubate for another 72 hrs. Then CellTiter-Glo® kit (Promega, Cat #G7572) was used to do the detection. First, the CTG reagent was melted and the cell plate was balanced to room temperature. The same volume of CTG solution was added into each well and vibrated on the shaker for 5 minutes to lyse the cells. The cell plate was kept at room temperature for 20 minutes to stabilize the luminescent signal. The luminescent value was collected by SpectraMax microplate detector (MD, 2104-0010A). […] Cell survival rate (%)=(1umdrug−1ummedium)/(1umcell−lummedium)×100%

The test system of series [8] is Ba/F3 ETV6-NTRK2-WT. The series is described as follows: Cell proliferation inhibition (CellTiter-Glo), Ba/F3 ETV6-NTRK2-WT. The following applies: Mus musculus, BaF3, 72 h, 72 hrs, read-out: IC50 proliferation Ba/F3 ETV6-NTRK2-WT. Type of series: cell-based. How it is done: as §1, §3, §2, §4

Sequence of TRKA (P04629 33-796): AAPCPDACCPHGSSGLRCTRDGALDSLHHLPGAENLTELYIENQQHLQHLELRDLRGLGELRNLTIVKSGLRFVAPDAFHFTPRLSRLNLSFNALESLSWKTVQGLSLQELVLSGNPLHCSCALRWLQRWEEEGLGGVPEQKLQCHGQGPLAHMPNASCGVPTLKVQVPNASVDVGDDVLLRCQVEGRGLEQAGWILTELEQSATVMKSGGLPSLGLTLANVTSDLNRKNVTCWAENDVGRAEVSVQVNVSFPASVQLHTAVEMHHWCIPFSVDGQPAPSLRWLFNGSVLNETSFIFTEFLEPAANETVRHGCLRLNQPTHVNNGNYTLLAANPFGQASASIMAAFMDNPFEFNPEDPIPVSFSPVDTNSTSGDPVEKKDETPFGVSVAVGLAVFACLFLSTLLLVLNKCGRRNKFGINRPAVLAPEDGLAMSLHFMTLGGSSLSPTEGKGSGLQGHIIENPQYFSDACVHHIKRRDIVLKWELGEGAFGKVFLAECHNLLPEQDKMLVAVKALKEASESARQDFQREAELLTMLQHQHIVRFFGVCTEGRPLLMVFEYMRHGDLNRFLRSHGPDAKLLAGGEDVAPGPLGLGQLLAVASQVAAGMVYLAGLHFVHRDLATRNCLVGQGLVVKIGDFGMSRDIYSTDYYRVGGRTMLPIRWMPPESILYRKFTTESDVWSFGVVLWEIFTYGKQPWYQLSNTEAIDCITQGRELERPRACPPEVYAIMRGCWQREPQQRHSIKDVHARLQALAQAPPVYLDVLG
Sequence of TRKC (Q16288 other isoform, or with tags, fused parts or gaps isoform Q16288-3): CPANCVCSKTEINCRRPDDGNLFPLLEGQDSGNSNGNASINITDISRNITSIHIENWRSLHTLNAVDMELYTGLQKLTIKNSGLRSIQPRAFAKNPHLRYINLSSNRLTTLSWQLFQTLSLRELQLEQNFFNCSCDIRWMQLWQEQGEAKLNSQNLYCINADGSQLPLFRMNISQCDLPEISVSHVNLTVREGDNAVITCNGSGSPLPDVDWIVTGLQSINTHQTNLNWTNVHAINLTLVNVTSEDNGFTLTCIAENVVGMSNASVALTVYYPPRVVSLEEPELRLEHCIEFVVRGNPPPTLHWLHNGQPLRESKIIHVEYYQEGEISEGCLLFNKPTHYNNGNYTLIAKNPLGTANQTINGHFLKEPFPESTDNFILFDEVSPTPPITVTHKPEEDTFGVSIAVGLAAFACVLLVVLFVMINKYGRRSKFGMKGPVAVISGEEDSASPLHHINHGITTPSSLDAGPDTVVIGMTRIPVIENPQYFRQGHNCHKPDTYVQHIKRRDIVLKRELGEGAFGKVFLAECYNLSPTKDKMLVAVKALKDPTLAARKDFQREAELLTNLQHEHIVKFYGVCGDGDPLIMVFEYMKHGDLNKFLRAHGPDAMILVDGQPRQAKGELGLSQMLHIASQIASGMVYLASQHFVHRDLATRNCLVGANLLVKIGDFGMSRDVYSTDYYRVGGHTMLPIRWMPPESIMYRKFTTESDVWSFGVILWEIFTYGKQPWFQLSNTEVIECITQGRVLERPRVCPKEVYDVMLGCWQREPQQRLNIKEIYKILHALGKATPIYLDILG

As to `C[C@H]1COC(=O)c2cnn3ccc(nc23)N[C@H](C)c2cc(F)ccc2O1` [Example 1, (1^3E,1^4E,3R,6S)-4^5-fluoro-3,6-dimethyl-5,8-dioxa-2-aza-1(5,3)-pyrazolo[1,5-a]pyrimidina-4(1,2)-benzenacyclononaphan-9-one], the “Combination Index (CI)” value in series [1] is listed as 0.53-0.67. Also, the IC50 in series [2] turned out to be 0.61 nM; in series [3] it was 0.42 nM; in series [4] (test batch marked #), 1.34 nM; in series [4] (test batch marked *) it was 7.8 nM; in series [6], 0.5 nM; in series [7] (test batch marked #), 64.6 nM. Moreover, the IC50 in series [7] (test batch marked *) was 100 nM; in series [8] (test batch marked #), 4.24 nM; in series [8] (test batch marked *) it was 7.8 nM. Besides, the AUC(0-inf) in series [5] (male, SD, plasma, IV, 1 mg/kg) is 621 ng·h/mL; in series [5] (male, SD, plasma, PO, 5 mg/kg) it was 3550 ng·h/mL. This molecule also had a C0 in series [5] (male, SD, plasma, IV, 1 mg/kg) of 217 ng/mL. Moreover, the half-life in series [5] (male, SD, plasma, IV, 1 mg/kg) was 1.7 h; in series [5] (male, SD, plasma, PO, 5 mg/kg), 1.84 h. Further, in series [5] (male, SD, plasma, IV, 1 mg/kg, read-out: C1 (clearance)), the clearance came to 27.2 mL/min/kg. Moreover, the Vd in series [5] (male, SD, plasma, IV, 1 mg/kg, read-out: Vdss) came out at 4.26 L/kg. Moreover, in series [5] (male, SD, plasma, PO, 5 mg/kg), the highest level (Cmax) was 952 ng/mL. Besides, the Tmax in series [5] (male, SD, plasma, PO, 5 mg/kg) was 0.667 h. The bioavailability in series [5] (male, SD, plasma, po, 5 mg/kg, PO, 5 mg/kg, read-out: F (oral bioavailability)) came out at 100%. Besides, the “F (oral bioavailability)” value in series [5] (PO, 5 mg/kg) was found to be 114%. The “PK performance compared with TPX-0005” value in series [5] (oral) was “better oral pharmacokinetic performance than that of TPX-0005”.
